Values joined by “and” are separate entries in the source; they are usually repeats but may differ in a detail not shown here. Equal entries are not always repeated.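 In this assay, cells in 96-well plates receive the compound at five concentrations for 48 hours. Endpoints are linearly interpolated between the surrounding concentrations. Abbreviation: GI50, concentration required for 50% inhibition of growth. TGI marks complete inhibition of growth.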
Tests used:
Assay in all cases: NCI-60 cell line screen, 48 h
SF-539 CNS = system: SF-539 CNS
T-47D breast = system: T-47D breast
NCI/ADR-RES ovarian = system: NCI/ADR-RES ovarian
786-0 renal = system: 786-0 renal
PC-3 prostate = system: PC-3 prostate
MALME-3M melanoma = system: MALME-3M melanoma
K-562 leukemia = system: K-562 leukemia
OVCAR-4 ovarian = system: OVCAR-4 ovarian
LOX IMVI melanoma = system: LOX IMVI melanoma
CCRF-CEM leukemia = system: CCRF-CEM leukemia

Row | Structure (SMILES) | GI50 (SF-539 CNS) | TGI (SF-539 CNS) | GI50 (T-47D breast) | TGI (T-47D breast) | GI50 (NCI/ADR-RES ovarian) [µM] | TGI (NCI/ADR-RES ovarian) [µM] | GI50 (786-0 renal) | TGI (786-0 renal) | GI50 (PC-3 prostate) | TGI (PC-3 prostate) | GI50 (MALME-3M melanoma) | TGI (MALME-3M melanoma) | GI50 (K-562 leukemia) | TGI (K-562 leukemia) | GI50 (OVCAR-4 ovarian) | TGI (OVCAR-4 ovarian) | GI50 (LOX IMVI melanoma) | TGI (LOX IMVI melanoma) | GI50 (CCRF-CEM leukemia) | TGI (CCRF-CEM leukemia)
1 | CC(C)=CCNc1ncnc2c1ncn2C1OC(COP(=O)(O)O)C(O)C1O (stereo not drawn) | 4 µM | 38.9 µM | 4.96 µM | 25.4 µM | 5.85 | > 100 | 5.82 µM | > 79.6 µM | 2 µM | 8.22 µM | 73.8 µM | > 100 µM | 4.22 µM | > 100 µM | 5.01 µM | 34.3 µM | 0.581 µM | 2.55 µM | 3.32 µM | > 100 µM
2 | Oc1ccc(Br)cc1CN1CCN(Cc2ccc(Cl)cc2)CC1 | 32 µM | > 100 µM | 8.9 µM | > 100 µM | 17.2 | > 100 | 21.2 µM | 80.9 µM | 23.9 µM | > 100 µM | 14.7 µM | 45.8 µM | 10.2 µM | > 100 µM | 11.8 µM | 86.3 µM | 16.3 µM | 36.9 µM | 24.3 µM | > 100 µM
3 | COc1ccc(-n2cc(-c3ccc(Cl)cc3)[nH]c2=S)cc1Cl | 19.9 µM | 44.3 µM | 18.4 µM | > 100 µM | 42.2 | > 100 | 20 µM | 41.4 µM | 30.7 µM | > 100 µM | > 100 µM | > 100 µM | > 100 µM | > 100 µM | 20.7 µM | 48.6 µM | 94 µM | > 100 µM | 60.6 µM | > 100 µM
4 | COc1ccc(/C(C#N)=C/c2nc3c(N4CCOCC4)nc(Cl)nc3n2C)cc1OC | < 0.01 µM | < 0.01 µM | 0.272 µM | 3.15 µM | < 0.01 | < 0.01 | < 0.01 µM | 1.61 µM | < 0.01 µM | 1.52 µM | < 0.0152 µM | 2.01 µM | < 0.01 µM | 11.4 µM | < 0.0105 µM | 1.93 µM | < 0.01 µM | 1.15 µM | < 0.01 µM | 0.146 µM
5 | COC1=CC(=O)c2c(O)c3c(c(O)c2C1=O)CC(C)(O)OC3 (stereo not drawn) | – | 9.66 µM | – | 8.38 µM | – | > 25.9 | – | 27.3 µM | – | 14.9 µM | – | 2.1 µM | – | > 45.3 µM | – | 4.51 µM | – | 12.9 µM | – | 17.4 µM
6 | O=C1CCc2cc([N+](=O)[O-])ccc2O1 | – | > 100 µM | – | > 100 µM | – | > 100 | – | > 100 µM | – | > 100 µM | – | > 100 µM | – | > 100 µM | – | > 100 µM | – | > 100 µM | – | > 100 µM
7 | CC([C@H]1CCC2C3CCC4C(=O)C(NC=O)=CC[C@]4(C)C3CC[C@@]21C)N(C)C (stereo partly drawn) | 1.58 µM | 3.14 µM | 1.73 µM | 6.57 µM | 6.8 | 27.2 | 2.48 µM | 7.76 µM | 2.51 µM | 14.5 µM | 2.34 µM | 5.96 µM | 0.965 µM | > 23.8 µM | 5.12 µM | 26.6 µM | 1.78 µM | 4.02 µM | 3.24 µM | 18.7 µM
8 | CN1CCN(c2nc(C3=C(c4c[nH]c5ccccc45)C(=O)NC3=O)c3ccccc3n2)CC1 | 10.5 µM and 16.8 µM | 19.7 µM and 32.9 µM | 15.6 µM and 26.3 µM | 53.4 µM and 82.4 µM | 25.4 | 65 | 15.7 µM and 18.3 µM | 39.6 µM and 36.9 µM | 27.2 µM and 18.3 µM | 65 µM and 43.6 µM | 10 µM and 10.2 µM | 19.9 µM and 24.3 µM | 11.9 µM and 12.6 µM | 65 µM and 49.2 µM | 18.9 µM and 16.2 µM | 65 µM and 69.1 µM | 13.1 µM and 17.3 µM | 24.5 µM and 36.4 µM | 28.9 µM and 14 µM | 65 µM and 62.8 µM
9 | Cc1cc(C)c2nc(Nc3nc(C)c(C)c(=O)[nH]3)nc(C)c2c1 | 2.54 µM | 10.3 µM | 1.65 µM | 8.42 µM | 4.12 | 57.3 | 2.4 µM | 12.3 µM | 2.96 µM | 15.1 µM | 1.61 µM | 7.48 µM | 2.53 µM | 11.1 µM | 3.27 µM | 15.6 µM | 1.92 µM | 5.38 µM | 2.72 µM | 8.61 µM
10 | Nc1nc(Cl)cc2c1ncn2C1OC(CO)C(O)C1O (stereo not drawn) | > 100 µM | > 100 µM | > 100 µM | > 100 µM | > 100 | > 100 | > 100 µM | > 100 µM | > 100 µM | > 100 µM | > 100 µM | > 100 µM | > 100 µM | > 100 µM | > 100 µM | > 100 µM | > 100 µM | > 100 µM | > 100 µM | > 100 µM
11 | CC(=O)c1c[nH]c2ccc(-c3ccnc(Nc4ccc(NC(=O)c5cccc(F)c5)c(CN5CCOCC5)c4)n3)cc12 | 0.0809 µM | 0.457 µM | 0.223 µM | 5.45 µM | 0.273 | 4.35 | 0.157 µM | > 26.2 µM | 0.224 µM | 2.96 µM | 0.254 µM | 0.749 µM | 0.303 µM | > 100 µM | 0.307 µM | 3.07 µM | 0.0604 µM | 0.45 µM | 0.134 µM | > 100 µM
12 | O=C(O)CSc1ccn(Cc2ccccc2)c1 | – | > 100 µM | – | > 100 µM | – | > 100 | – | > 100 µM | – | > 100 µM | – | > 100 µM | – | > 100 µM | – | > 100 µM | – | > 100 µM | – | > 100 µM
13 | CC(CC(C)[C@H]1CCC2[C@H]3C(CC[C@@]21C)[C@@]1(C)CCC(O)C[C@H]1C[C@@H]3O)C(=O)O (stereo partly drawn) | – | > 100 µM | – | > 100 µM | – | > 100 | – | > 100 µM | – | > 100 µM | – | > 100 µM | – | > 100 µM | – | > 100 µM | – | > 100 µM | – | > 100 µM
14 | COc1cc2c(cc1OC)[C@@H]1[C@H](C2=O)c2ccc([N+](=O)[O-])cc2C(=O)N1CCCBr | 0.387 µM | 2.29 µM | < 0.01 µM | > 100 µM | – | 9.93 | < 0.0489 µM | 0.285 µM | 1.19 µM | > 70.4 µM | 0.367 µM | 3.09 µM | 1.26 µM | > 100 µM | 2.4 µM | > 100 µM | 0.2 µM | 0.81 µM | < 0.01 µM | –
15 | COc1cccc(-n2cnc3c(N/N=C/c4ccncc4)ncnc32)c1 | > 18.9 µM | > 25 µM | 11.2 µM | > 25 µM | > 25 | > 25 | 19.5 µM | > 25 µM | > 25 µM | > 25 µM | 10.2 µM | > 25 µM | 10.9 µM | > 25 µM | 11.6 µM | > 25 µM | 12.8 µM | > 25 µM | > 25 µM | > 25 µM
16 | COc1cc(Oc2cnc3cc(N)cc(N)c3n2)cc(OC)c1OC | 46.2 µM | > 100 µM | 33.5 µM | > 100 µM | 30.6 | > 100 | 33 µM | > 100 µM | 32.4 µM | > 100 µM | 59.9 µM | > 100 µM | 38.1 µM | > 100 µM | 37.3 µM | > 100 µM | 33.4 µM | > 100 µM | 50.7 µM | > 100 µM
17 | O=C(O)/C=C/C(=O)Nc1cccc2c1-c1ccccc1C2=O | – | 19.2 µM | – | > 100 µM | – | > 92.1 | – | > 100 µM | – | > 88.9 µM | – | > 100 µM | – | > 64.1 µM | – | > 100 µM | – | > 100 µM | – | > 28.3 µM
